# Data reported in PubChem BioAssay AID330 (DTP/NCI, 2004).
# Toxic doses and inconclusive results are not listed.
# System: P388 leukemia ip, CD2F1 mice, survival T/C
# Assay: NCI In Vivo Anticancer Drug Screen. Data for tumor model P388 Leukemia (intraperitoneal) in CD2F1 (CDF1) mice
# Conditions: endpoint: median survival time, higher = longer survival
# Summary of the method: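 Mice carrying the transplanted tumor received test compound or vehicle. Survival was recorded in each group, and the value is the treated-group measurement divided by that of the vehicle-treated control group.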
# [1] = dose: 50.0 mg/kg/injection, schedule: Q01DX005 (ip), vehicle: saline with Tween-80
# [2] = dose: 60.0 mg/kg/injection, schedule: Q01DX005 (ip), vehicle: saline with Tween-80
# [3] = dose: 100.0 mg/kg/injection, schedule: Q01DX005 (ip), vehicle: saline with Tween-80
# [4] = dose: 120.0 mg/kg/injection, schedule: Q01DX005 (ip), vehicle: saline with Tween-80
# [5] = dose: 200.0 mg/kg/injection, schedule: Q01DX005 (ip), vehicle: saline with Tween-80
# [6] = dose: 50.0 mg/kg/injection, schedule: Q01DX009 (ip), vehicle: saline
# [7] = dose: 100.0 mg/kg/injection, schedule: Q01DX009 (ip), vehicle: saline
# [8] = dose: 200.0 mg/kg/injection, schedule: Q01DX009 (ip), vehicle: saline
structure (smiles),measurement,setting,value
CCN(CCN1C(=O)C2CCCCC2C1=O)c1ccc(N=O)c(C)c1 (stereo unspecified),T/C,"dose: 100.0 mg/kg/injection, schedule: Q04DX003 (ip), vehicle: saline with Tween-80",106 % of control
same,T/C,"dose: 200.0 mg/kg/injection, schedule: Q04DX003 (ip), vehicle: saline with Tween-80",109 % of control
same,T/C,"dose: 400.0 mg/kg/injection, schedule: Q04DX003 (ip), vehicle: saline with Tween-80",112 % of control
N#Cc1nccnc1Cl,T/C,"dose: 25.0 mg/kg/injection, schedule: Q01DX009 (ip), vehicle: other",95 % of control
same,T/C,"dose: 25.0 mg/kg/injection, schedule: Q04DX003 (ip), vehicle: other",100 % of control
same,T/C,"dose: 50.0 mg/kg/injection, schedule: Q01DX009 (ip), vehicle: other",100 % of control
same,T/C,"dose: 50.0 mg/kg/injection, schedule: Q04DX003 (ip), vehicle: other",100 % of control
same,T/C,"dose: 100.0 mg/kg/injection, schedule: Q01DX009 (ip), vehicle: other",100 % of control
same,T/C,"dose: 100.0 mg/kg/injection, schedule: Q04DX003 (ip), vehicle: other",100 % of control
O=[N+]([O-])c1ccc(/C=[N+](\[O-])CCO)cc1,T/C,"dose: 100.0 mg/kg/injection, schedule: Q01DX009 (ip), vehicle: saline with Tween-80",99 % of control
same,T/C,"dose: 200.0 mg/kg/injection, schedule: Q01DX009 (ip), vehicle: saline with Tween-80",92 % of control
O=C1OCCOCCOCCOCCOCCOC(=O)c2cccc1n2,T/C,"dose: 100.0 mg/kg/injection, schedule: Q04DX003 (ip), vehicle: Klucel (hydroxypropylcellulose) (HPC)",96 % of control
same,T/C,"dose: 200.0 mg/kg/injection, schedule: Q04DX003 (ip), vehicle: Klucel (hydroxypropylcellulose) (HPC)",103 % of control
same,T/C,"dose: 400.0 mg/kg/injection, schedule: Q04DX003 (ip), vehicle: Klucel (hydroxypropylcellulose) (HPC)",101 % of control
CC1(C)OC(C(F)(F)F)(C(F)(F)F)c2cc(C(C)(C)C)cc(C(O)(C(F)(F)F)C(F)(F)F)c2S1,T/C,"dose: 30.0 mg/kg/injection, schedule: Q01DX005 (ip), vehicle: saline with Tween-80",120 % of control
same,T/C,[1],106 % of control
same,T/C,[2],113 % of control
same,T/C,[3],120 % of control
same,T/C,[4],112 % of control
same,T/C,[5],115 % of control
O=C1C2C3CC(c4ccccc43)C2N1S(=O)(=O)Cl (stereo unspecified),T/C,[2],107 % of control
same,T/C,[4],106 % of control
same,T/C,"dose: 240.0 mg/kg/injection, schedule: Q01DX005 (ip), vehicle: saline with Tween-80",114 % of control
CCN(CC)Cc1c(C)[nH]c2ccc3c(c2c1=O)Oc1ccccc1O3,T/C,"dose: 100.0 mg/kg/injection, schedule: Q04DX002 (ip), vehicle: Klucel (hydroxypropylcellulose) (HPC)",100 % of control
same,T/C,"dose: 200.0 mg/kg/injection, schedule: Q04DX002 (ip), vehicle: Klucel (hydroxypropylcellulose) (HPC)",100 % of control
same,T/C,"dose: 400.0 mg/kg/injection, schedule: Q04DX002 (ip), vehicle: Klucel (hydroxypropylcellulose) (HPC)",100 % of control
CC(C)(C(=O)O)c1csc(-c2ccc(Cl)cc2)n1,T/C,[1],98 % of control
same,T/C,[3],102 % of control
same,T/C,[5],93 % of control
C[n+]1c2ccccc2cc2[nH]c3ccccc3c21,T/C,"dose: 6.25 mg/kg/injection, schedule: Q01DX005 (ip), vehicle: Klucel + Tween-80",105 % of control
C1=CC=CCC=C1,T/C,"dose: 12.5 mg/kg/injection, schedule: Q01DX009 (ip), vehicle: saline with Tween-80",120 % of control
NC(CS)C(=O)O.[Cl-].[Cl-].[Cl-].[Cl-].[Pt+2] (stereo unspecified),T/C,"dose: 12.5 mg/kg/injection, schedule: Q01DX009 (ip), vehicle: saline",104 % of control
same,T/C,"dose: 25.0 mg/kg/injection, schedule: Q01DX009 (ip), vehicle: saline",95 % of control
same,T/C,[6],95 % of control
same,T/C,[7],99 % of control
same,T/C,[8],95 % of control
CCOC(=O)CS(=O)(=O)CCCCCCS(=O)(=O)CC(=O)OCC,T/C,[6],103 % of control
same,T/C,[7],91 % of control
same,T/C,[8],94 % of control
COc1ccc(/C=C2\CCc3cc(OC)ccc3C2=O)cc1,T/C,"dose: 6.25 mg/kg/injection, schedule: Q01DX009 (ip), vehicle: Klucel (hydroxypropylcellulose) (HPC)",117 % of control
same,T/C,"dose: 12.5 mg/kg/injection, schedule: Q01DX009 (ip), vehicle: Klucel (hydroxypropylcellulose) (HPC)",117 % of control
same,T/C,"dose: 25.0 mg/kg/injection, schedule: Q01DX009 (ip), vehicle: Klucel (hydroxypropylcellulose) (HPC)",115 % of control
COC(COC(=O)N1CCN(C=O)CC1)C1=C(N2CC2)C(=O)C(C)=C(N2CC2)C1=O (stereo unspecified),T/C,"dose: 3.13 mg/kg/injection, schedule: Q01DX005 (ip), vehicle: saline",177 % of control
NC(=S)N1CC=CCC1,T/C,"dose: 50.0 mg/kg/injection, schedule: Q01DX009 (ip), vehicle: Klucel (hydroxypropylcellulose) (HPC)",99 % of control
same,T/C,"dose: 100.0 mg/kg/injection, schedule: Q01DX009 (ip), vehicle: Klucel (hydroxypropylcellulose) (HPC)",101 % of control
same,T/C,"dose: 200.0 mg/kg/injection, schedule: Q01DX009 (ip), vehicle: Klucel (hydroxypropylcellulose) (HPC)",101 % of control
